# Values quoted from earlier work as cited in US4868157A, “Dipeptidyl 2-amino-1,2-dideoxy-D-glucose derivatives as host resistance enhancers in AIDS-immunocompromised hosts and methods of use” (priority 1987, dated 1989).
# Experiments:
# [1] = target: HIV reverse transcriptase (Human immunodeficiency virus type 1 group M subtype B, UniProt P04585)
# AIDS-related virus = details: for symptoms and/or immune function in patients: ARC or AIDS patients, clinical trials; for viral replication in patients: humans / AIDS patients
# [2] = system: AIDS-related Kaposi's sarcoma; details: AIDS-related Kaposi's sarcoma cases
# [3] = system: Mycobacterium aviumintracellulare
compound,measurement,setting,value
"O=C(O)P(=O)(O)O [Foscarnet, trisodium phosphonoformate]",inhibition of HIV reverse transcriptase,[1],Inhibits HIV reverse transcriptase activity in vitro at levels pharmacologically acceptable in vivo
Cc1ccc(C(=O)Nc2ccc(S(=O)(=O)O)c3cc(S(=O)(=O)O)cc(S(=O)(=O)O)c23)cc1NC(=O)c1cccc(NC(=O)Nc2cccc(C(=O)Nc3cc(C(=O)Nc4ccc(S(=O)(=O)O)c5cc(S(=O)(=O)O)cc(S(=O)(=O)O)c45)ccc3C)c2)c1 [Suramin],therapeutic benefit / clinical improvement in AIDS patients,AIDS-related virus,little or no evidence of clinical improvement or immunologic recovery
CC(C)(N1CC1C#N)N1CC1C(N)=O (stereo not drawn) [Azimexon],symptoms and/or immune function in patients,AIDS-related virus,improvements in symptoms and immune function in patients with ARC but not AIDS
α-Interferon,growth of HIV in vitro,HIV,Checks the growth of HIV in vitro
same,tumor regression,[2],induced tumor regression in some AIDS-related Kaposi's sarcoma cases
"CO[C@H]1/C=C/O[C@@]2(C)Oc3c(C)c(O)c4c(c3C2=O)C2=NC3(CCN(CC(C)C)CC3)NC2=C(NC(=O)/C(C)=C\C=C\[C@H](C)[C@H](O)[C@@H](C)[C@@H](O)[C@@H](C)[C@H](OC(C)=O)[C@@H]1C)C4=O [Ansamycin, rifabutin]",efficacy in AIDS patients with opportunistic Mycobacterium aviumintracellulare infection,[3],some efficacy
ammonium 21-tungsto-9-antimoniate [HPA-23],therapeutic benefit / clinical improvement in AIDS patients,AIDS-related virus,no therapeutic benefit has been documented
"CC(=O)Nc1ccc(C(=O)O)cc1.CC(=O)Nc1ccc(C(=O)O)cc1.CC(=O)Nc1ccc(C(=O)O)cc1.CC(O)CN(C)C.CC(O)CN(C)C.CC(O)CN(C)C.O=c1[nH]cnc2c1ncn2[C@@H]1O[C@H](CO)[C@@H](O)[C@H]1O [Inosine pranobex, p-Acetamidobenzoic acid salt of (1-dimethylamino-2-propanol:inosinate complex 3:3:1 molar ratio)]",symptoms and/or immune function in patients,AIDS-related virus,improve immune function
"NC(=O)c1ncn([C@@H]2O[C@H](CO)[C@@H](O)[C@H]2O)n1 [Ribavirin, 1-β-D-ribofuranosyl-1,2,4-triazole-3-carboxamide]",tolerability,"24-week trial in 373 ARC patients, at 12 weeks",well tolerated
same,safety profile,"human, in vivo",acceptable
same,symptoms and/or immune function in patients,AIDS-related virus,improved immune function
same,viral replication in patients,AIDS-related virus,inhibited viral replication
"CC(C)(S)[C@@H](N)C(=O)O [D-Penicillamine, 3-mercapto-D-valine]",T cell levels,"AIDS-related virus; human, in vivo",temporarily depressed T cell levels
same,viral replication in patients,AIDS-related virus,Inhibits HIV reproduction in humans
same,effect on the virus,"AIDS-related virus; trials at George Washington University Medical Center, 13 AIDS patients with perpetually swollen glands",suppressed the virus
